From patent publication US20210187127A1, “CHALLENGE TEST FOR DIAGNOSING A SUBTYPE OF AUTISM SPECTRUM DISEASE” (STALICLA SA, priority 2017, published 2021)
Like-named read-outs stand apart in the source and are kept apart here.

How the values were obtained:
[1] = system: ASD phenotype 2 patients; settings: for CGI-I: after 3 days of administration; for CGI-I / GGI-S: 7-point scale; for Clinical significance / GGI-S: after challenge test; for ADI-R-RI S score / ADI-R-C S score / ADI-R-SI S score: day 3 of challenge test; for ADI-R-SI S score: baseline 16; for ADI-R-C Change (%) / ADI-R-RI Change (%) / ADI-R-SI Change (%): day 3 vs baseline
Method: (§1) The effects of sulforaphane containing Broccoli sprout extract was observed and quantified in 7 individuals suffering from ASD and previously classified as either phenotype 1 or phenotype 2 patients.
We describe a procedure consisting of an evaluation of patients with ASD prior and after administration of broccoli sprout extract. The extract was prepared from selected broccoli seeds known to have high yield of sulforaphane which were surface-disinfected and grown (sprouted) for 3 days in a commercial sprouting facility under controlled light and moisture conditions. A boiling water extract was prepared, filtered, cooled, and treated with the enzyme myrosinase (from daikon sprouts) to convert precursor glucosinolates to isothiocyanates. Behavioral evaluation of patients was performed prior, during and after administration of sulforaphane-containing broccoli sprout extract. Baseline evaluation of patients was performed using standard clinical endpoints (ADI-R subscales ADI-SI, ADI-C and ADI-RI).
Challenge regimen consisted of the administration of a Broccoli Sprout Extract dose corresponding to a total daily dosage of 4 μmol/kg of sulforaphane, administered in 3 doses over the course of the day.
The assessment of baseline scores and post challenge test scores was conducted by two experienced clinicians with extensive experience in conducting ASD clinical assessments, both of which separately rated the patients. In case of diverging scores in test subscales at baseline or after administration of the challenge test, the lowest severity score was retained. Assessment of clinical endpoints was performed at day 3 of administration of challenge test. Behavioral Outcome Measures: (primary efficacy endpoints): ABC, SRS; CGI-S, CGI-I and ADI-R (ADI-SI, ADI-C, ADI-RI).

[2] = system: ASD phenotype 1 patients; test: Challenge test with broccoli sprout extract (sulforaphane), behavioral scores; format: in vivo, humans; settings: selected patient cohort
Method: as §1
The extract was prepared from selected broccoli seeds known to have high yield of sulforaphane which were surface-disinfected and grown (sprouted) for 3 days in a commercial sprouting facility under controlled light and moisture conditions.

[3] = Singh K et al., PNAS 2014; cited from earlier work
[4] = system: lymphoblastoid cell lines of ASD phenotype 1 patients; test: Biolog Phenotype Mammalian MicroArrays, NADH production (redox dye); format: cell-based, human; settings: cells exposed to the growth factor or cytokine; FIG. 1 (AUC) and Table 1
Method: From all subjects, blood samples were collected and lymphoblastoid cell lines generated. Briefly, tubes containing anticoagulant citrate dextrose (ACD) were used to collect blood samples via venipuncture, in order to ensure that the blood cells remained metabolically active. The tubes were kept at room temperature and processed within 24 hours.
Cell lines were obtained by immortalization of lymphocytes from blood samples using Epstein-Barr virus.
Energy production of cells was measured using commercially available Phenotype Mammalian MicroArrays (PM-Ms, Biolog, Hayward, Calif., USA).
The compound in each well was designed to be used by the cells, either as the sole energy source or as the metabolic effector influencing the utilization of an energy source (α-D-glucose) added in the cell suspension. […] Before plating, cell viability and number were assessed utilizing a BioRad cell counter and a trypan blue dye. The concentration of live cells required for plating was 4×10^5 cells/mL, corresponding to 20,000 cells per well in a volume of 50 μL. […] Cells were incubated for 48 h at 37° C. in 5% CO2, using the modified Biolog IF-M1 medium.
The Biolog IF-M1 medium was modified for plates PM-M1 to M4 by adding the following to 100 mL of Biolog IF-M1: 1.1 mL of 100× penicillin/streptomycin solution, 0.16 mL of 200 mM glutamine (final concentration 0.3 mM), and 5.3 mL of Fetal Bovine Serum (FBS, final concentration 5%). For plates PM-M5 to M8, 5.5 mM α-D-glucose will be added in place of FBS.
During the 48-hour incubation, the only energy source the cells had was the chemical in the well. After this first incubation, Biolog Redox Dye Mix MB was added (10 μL/well) and the plates were incubated under the same conditions for an additional 24 hours. As the cells metabolized the energy source, tetrazolium dye in the media was reduced, producing a purple color according to the amount of NADH generated.
For the last 24 hours of the experiment, the plates were incubated in the Omnilog system, which collects optical density readings every 15 minutes, generating 96 data-points for each well. The system also elaborated the kinetic curve for the metabolic reaction in each well and extrapolated parameters such as slope, highest point, endpoint, area under the curve (AUC), and lag.
At the end of the 24-hour incubation, the plates were analyzed utilizing a microplate reader with readings at 590 and 750 nm. The first value (A590) indicated the highest absorbance peak of the redox dye and the second value (A750) gave a measure of the background noise. The relative absorbance (A590-750) was calculated per well.

[5] = Example 4 Patient 1 (phenotype 2)
[6] = Example 4 Patient 2 (phenotype 2)

C[S@@+]([O-])CCCCN=C=S [sulforaphane, 1-isothiocyanato-4R-(methylsulfinyl)butane]
CGI-I [1, 5]: 2
Clinical significance [1, 5]: Very much improved
GGI-S [1, 5]: 4
ADI-R-RI S score ([1]; Example 4 Patient 1 (phenotype 2), baseline 3): 3
ADI-R-C S score ([1]; Example 4 Patient 1 (phenotype 2), baseline 12): 10
ADI-R-SI S score [1, 5]: 12
ADI-R-C Change (%) [1, 5]: −20%
ADI-R-RI Change (%) [1, 5]: 0%
ADI-R-SI Change (%) [1, 5]: −33%
CGI-I [1, 6]: 2
Clinical significance [1, 6]: Very much improved
GGI-S [1, 6]: 4
ADI-R-RI S score ([1]; Example 4 Patient 2 (phenotype 2), baseline 5): 4
ADI-R-C S score ([1]; Example 4 Patient 2 (phenotype 2), baseline 11): 9
ADI-R-SI S score [1, 6]: 14
ADI-R-C Change (%) [1, 6]: −22%
ADI-R-RI Change (%) [1, 6]: −25%
ADI-R-SI Change (%) [1, 6]: −14%
reducing disease severity as measured through the ADI-R, SRS and GGI-S/CGI-I [2]: not effective
tolerability of administration to humans [3]: well tolerated
toxicity [3]: low toxicity

FGF-1(aFGF): growth factor that selectively targets the PI3K-Akt-mTOR pathway
production of NADH in ASD phenotype 1 cells compared to TDs and non-phenotype 1 cells [4]: significantly reduced production of NADH

IGF-I: insulin-like growth factor 1
production of NADH in ASD phenotype 1 cells compared to TDs and non-phenotype 1 cells [4]: no significant differences

IL-1beta: Th1 cytokine
production of NADH in ASD phenotype 1 cells compared to TDs and non-phenotype 1 cells [4]: significantly lower levels of NADH

IL-6: Th1 cytokine
production of NADH in ASD phenotype 1 cells compared to TDs and non-phenotype 1 cells [4]: significantly lower levels of NADH

PDGF-AB: platelet-derived growth factor AB
production of NADH in ASD phenotype 1 cells compared to TDs and non-phenotype 1 cells [4]: no significant differences

hGH(Somatotropin): growth factor that selectively targets the PI3K-Akt-mTOR pathway
production of NADH in ASD phenotype 1 cells compared to TDs and non-phenotype 1 cells [4]: significantly reduced production of NADH
